Experimental data as given in patent US20160039880A1 (priority 2012, published 2016).

What was measured:
[1] = target: Human recombinant cyclophilin A (Cyp A) (Homo sapiens, UniProt P62937);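 note: cis to trans isomerization of SUC-AAPF-pNA by 2 nM enzyme, read as absorbance at 330 nm over 300 s at 10 °C, catalytic rate corrected for uncatalyzed background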
[2] = Water Solubility Assay (measured in pH 7.8 buffer); type: physicochemical; settings: pH 7.8;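 note: precipitation onset detected as rise in absorbance at 650 nm across increasing concentrations, after shaking for 18 h, blank wells receiving DMSO only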
[3] = target: Calcineurin (Homo sapiens, UniProt P62937+P63098+Q08209)
Chain of Calcineurin (P63098 whole entry, other chains not shown): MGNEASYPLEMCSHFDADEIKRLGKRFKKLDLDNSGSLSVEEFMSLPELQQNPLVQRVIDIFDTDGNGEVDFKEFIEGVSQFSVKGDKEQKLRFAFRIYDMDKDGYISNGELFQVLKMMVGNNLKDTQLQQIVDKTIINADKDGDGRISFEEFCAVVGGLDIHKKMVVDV
Chain of Calcineurin (P62937 whole entry, other chains not shown): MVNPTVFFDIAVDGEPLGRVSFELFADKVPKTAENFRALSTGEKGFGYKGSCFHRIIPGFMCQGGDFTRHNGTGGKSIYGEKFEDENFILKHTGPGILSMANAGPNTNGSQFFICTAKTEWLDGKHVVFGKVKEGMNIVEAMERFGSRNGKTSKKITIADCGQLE

Chain of Human recombinant cyclophilin A (Cyp A) (P62937 whole entry): as the sequence (P62937 whole entry, other chains not shown) above

| Ki [1] | Water Solubility Assay [2] | SMILES | immunosuppressive potential [3] |
| --- | --- | --- | --- |
| 9.5 nM | 75 to 100 µM | CC[C@H]1NC(=O)[C@@H]([C@H](O)[C@H](C)CCN2CC(F)(F)C2)N(C)C(=O)[C@@H](C(C)C)N(C)C(=O)[C@@H](CC(C)C)N(C)C(=O)[C@@H](CC(C)C)N(C)C(=O)[C@H](C)NC(=O)[C@@H](C)NC(=O)[C@@H](CC(C)C)N(C)C(=O)[C@@H](C(C)C)NC(=O)[C@H](CC(C)C)N(C)C(=O)[C@@H](C)N(C)C1=O [Compound EM, [(3R,4R,5S)-(3,3-Difluoro-azetidin-1-yl)-4-hydroxy-3-methyl-5-(methylamino)-1-hexanoic acid]^1[(R)-methyl-Sar]^3 cyclosporin A] | more immunosuppressive potential than others |
| 10 nM | 75 to 100 µM | CC[C@H]1NC(=O)[C@@H]([C@H](O)[C@H](C)CCN2CCC(F)(F)C2)N(C)C(=O)[C@@H](C(C)C)N(C)C(=O)[C@@H](CC(C)C)N(C)C(=O)[C@@H](CC(C)C)N(C)C(=O)[C@H](C)NC(=O)[C@@H](C)NC(=O)[C@@H](CC(C)C)N(C)C(=O)[C@@H](C(C)C)NC(=O)[C@H](CC(C)C)N(C)C(=O)[C@@H](C)N(C)C1=O [Compound EL, [(3R,4R,5S)-(3,3-Difluoro-pyrrolidin-1-yl)-4-Hydroxy-3-methyl-5-(methylamino)-1-hexanoic acid]^1[(R)-methyl-Sar]^3 cyclosporin A] | more immunosuppressive potential than others |

The next lines start with the compound.

| SMILES | Ki [1] | Water Solubility Assay [2] | immunosuppressive potential [3] |
| --- | --- | --- | --- |
| CC[C@H]1NC(=O)[C@@H]([C@H](O)[C@H](C)CCN2CC(F)(F)C(F)(F)C2)N(C)C(=O)[C@@H](C(C)C)N(C)C(=O)[C@@H](CC(C)C)N(C)C(=O)[C@@H](CC(C)C)N(C)C(=O)[C@H](C)NC(=O)[C@@H](C)NC(=O)[C@@H](CC(C)C)N(C)C(=O)[C@@H](C(C)C)NC(=O)[C@H](CC(C)C)N(C)C(=O)[C@@H](C)N(C)C1=O [Compound ER, [(3R,4R,5S)-4-Hydroxy-3-methyl-5-(methylamino)-1-(3,3,4,4-tetrafluoro-pyrrolidin-1-yl)-hexanoic acid]^1[(R)-methyl-Sar]^3 cyclosporin A] | 6.7 nM | 25 to 50 µM | more immunosuppressive potential than others |
| CC[C@H]1NC(=O)[C@@H]([C@H](O)[C@H](C)CCN2CC(F)(F)OC(F)(F)C2)N(C)C(=O)[C@@H](C(C)C)N(C)C(=O)[C@@H](CC(C)C)N(C)C(=O)[C@@H](CC(C)C)N(C)C(=O)[C@H](C)NC(=O)[C@@H](C)NC(=O)[C@@H](CC(C)C)N(C)C(=O)[C@@H](C(C)C)NC(=O)[C@H](CC(C)C)N(C)C(=O)[C@@H](C)N(C)C1=O [Compound EK, [(3R,4R,5S)-4-Hydroxy-3-methyl-5-(methylamino)-1-(2,2,6,6-tetrafluoro-morpholin-4-yl)-hexanoic acid]^1[(R)-methyl-Sar]^3 cyclosporin A] | 12 nM | 25 to 50 µM | more immunosuppressive potential than others |
| CC[C@H]1NC(=O)[C@@H]([C@H](O)[C@H](C)CCN2CCC(F)(F)CC2)N(C)C(=O)[C@@H](C(C)C)N(C)C(=O)[C@@H](CC(C)C)N(C)C(=O)[C@@H](CC(C)C)N(C)C(=O)[C@H](C)NC(=O)[C@@H](C)NC(=O)[C@@H](CC(C)C)N(C)C(=O)[C@@H](C(C)C)NC(=O)[C@H](CC(C)C)N(C)C(=O)[C@@H](C)N(C)C1=O [Compound EN, [(3R,4R,5S)-(4,4-Difluoro-piperidin-1-yl)-4-hydroxy-3-methyl-5-(methylamino)-1-hexanoic acid]^1[(R)-methyl-Sar]^3 cyclosporin A] | 6.7 nM | 25 to 50 µM | more immunosuppressive potential than others |
